From ChEMBL document CHEMBL5375962 (J Med Chem, 2023)
Converted amounts (≈) assume the structure as drawn.

What was measured:
Ketohexokinase [1] = biological target: T1, Ketohexokinase (Homo sapiens, UniProt P50053); assay: Inhibition of human KHK-C preincubated for 15 mins followed by substrate addition and measured after 20 mins in presence of ATP by Rapidfire MS analysis
T1 sequence (P50053 whole entry): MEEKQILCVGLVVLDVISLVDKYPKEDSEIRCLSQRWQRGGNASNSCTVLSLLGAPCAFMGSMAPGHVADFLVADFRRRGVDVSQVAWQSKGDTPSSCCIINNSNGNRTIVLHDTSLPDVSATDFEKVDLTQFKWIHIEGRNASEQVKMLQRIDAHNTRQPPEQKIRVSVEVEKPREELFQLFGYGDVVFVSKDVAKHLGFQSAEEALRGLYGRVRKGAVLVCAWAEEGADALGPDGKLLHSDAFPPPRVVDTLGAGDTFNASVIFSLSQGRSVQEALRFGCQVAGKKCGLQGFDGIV

Ketohexokinase [2] = biological target: T1, Ketohexokinase; assay: Inhibition of human KHK-A preincubated for 15 mins followed by substrate addition and measured after 20 mins in presence of ATP by Rapidfire MS analysis
Ketohexokinase [3] = biological target: T1, Ketohexokinase; assay: Inhibition of KHK in human HepG2 cells incubated for 3 hrs by Rapidfire MS analysis; format: cell-based
[4] = Inhibition of mouse KHK-C
[5] = Metabolic stability in mouse liver microsomes assessed as compound degradation measured after 30 mins; format: ADME, Microsome; details: read-out: Drug degradation
[6] = Metabolic stability in rat liver microsomes assessed as compound degradation measured after 30 mins; format: ADME, Microsome; details: read-out: Drug degradation
[7] = Metabolic stability in dog liver microsomes assessed as compound degradation measured after 30 mins; format: ADME, Canis lupus familiaris, Microsome; details: read-out: Drug degradation
[8] = Metabolic stability in human liver microsomes assessed as compound degradation measured after 30 mins; format: ADME, Microsome; details: read-out: Drug degradation
[9] = Thermodynamic solubility of the compound […] at pH 7.4; format: physicochemical; details: read-out: Therm_solubility
Hepatocyte = assay: Cytotoxicity against rat Primary hepatocyte; format: toxicity, cell-based; details: hepatocytes
[10] = Permeability in MDCK cells assessed as drug transport measured over 1 hr in presence of P-gp; format: ADME, cell-based, Canis lupus familiaris; details: dog
[11] = Clearance in rat hepatocytes measured per 10^6 cells; format: ADME, cell-based, Hepatocyte; details: read-out: CLH
[12] = Clearance in dog hepatocytes measured per 10^6 cells; format: ADME, cell-based, Canis lupus familiaris, Hepatocyte; details: read-out: CLH
[13] = Clearance in human hepatocytes measured per 10^6 cells; format: ADME, cell-based, Hepatocyte; details: read-out: CLH
[14] = Inhibition of mouse KHK-A
[15] = AUC in rat at 1 mg/kg, iv measured after 12 hrs; format: ADME, organism-based; design: time 12 hrs, dose 1 mg/kg, route iv; details: in vivo
[16] = Cmax in rat at 1 mg/kg, iv measured after 12 hrs; format: ADME, organism-based; design: dose 1 mg/kg, time 12 hrs, route iv; details: in vivo
[17] = Clearance in rat at 1 mg/kg, iv measured after 12 hrs; format: ADME, organism-based; details: in vivo
[18] = Half life in rat at 1 mg/kg, iv measured after 12 hrs; format: ADME, organism-based; details: in vivo
[19] = Volume of distribution in rat at 1 mg/kg, iv measured after 12 hrs; format: ADME, organism-based; details: in vivo
[20] = AUC in dog at 1 mg/kg, iv; format: ADME, organism-based, Canis lupus familiaris; design: dose 1 mg/kg, route iv; details: in vivo
[21] = Cmax in dog at 1 mg/kg, iv; format: ADME, organism-based, Canis lupus familiaris; design: dose 1 mg/kg, route iv; details: in vivo
[22] = Clearance in dog at 1 mg/kg, iv; format: ADME, organism-based, Canis lupus familiaris; details: in vivo
[23] = Half life in dog at 1 mg/kg, iv; format: ADME, organism-based, Canis lupus familiaris; details: in vivo
[24] = Volume of distribution in dog at 1 mg/kg, iv; format: ADME, organism-based, Canis lupus familiaris; details: in vivo

| SMILES | IC50 (Ketohexokinase [1]) [nM] | IC50 (Ketohexokinase [2]) [nM] | IC50 (Ketohexokinase [3]) [nM] | IC50 [4] [nM] | metabolised at 0.5 h [5] [%] | metabolised at 0.5 h [6] [%] | metabolised at 0.5 h [7] [%] | metabolised at 0.5 h [8] [%] | solubility thermodynamic [9] [µg/mL] | Drug transport [10] [%] | hepatocyte CLint [11] [µL/min/1e6 cells] | hepatocyte CLint [12] [µL/min/1e6 cells] | hepatocyte CLint [13] [µL/min/1e6 cells] | IC50 [14] [nM] | LC20 (Hepatocyte) [µM] | other results |
| --- | --- | --- | --- | --- | --- | --- | --- | --- | --- | --- | --- | --- | --- | --- | --- | --- |
| C[C@H]1CCN1c1nc(-c2cnn(C3CCNCC3)c2)cc(C(F)(F)F)c1C#N | 4 | 4 | 5 | 6 | 24 | 2 | 11 | 0 | 39 (≈ 99.9 µM) | 8.7 | 3.7 | 4.9 | 3.5 | 2 | < 9 | – |
| C[C@H]1CCN1c1nc(-c2cnn(C3CCN(C(=O)CN)CC3)c2)cc(C(F)(F)F)c1C#N | 6 | 6 | 16 | 10 | 18 | 5 | 0 | 0 | 12 (≈ 26.8 µM) | – | – | – | – | 3 | 16 | – |
| C[C@H]1CCN1c1nc(-c2cn[nH]c2)cc(C(F)(F)F)c1C#N | – | – | 34 | 19 | 100 | 81 | 98 | 52 | 3 (≈ 9.76 µM) | 20 | 30 | 150 | 49 | 6 | > 50 | – |
| C[C@H]1CCN1c1nc(-c2cnn(C3CNC3)c2)cc(C(F)(F)F)n1 | 5 | 4 | 6 | 3 | 21 | 11 | 20 | 7 | 450 (≈ 1330 µM) | 12 | 11 | 4.4 | 2.5 | 13 | 48 | – |
| C[C@H]1CCN1c1nc(-c2cnn(CCO)c2)cc(C(F)(F)F)c1C#N | – | 5 | 48 | 7 | 99 | 99 | 95 | 52 | 1 (≈ 2.85 µM) | – | – | – | – | 4 | – | – |
| C[C@H]1CCN1c1nc(-c2cnn(C3CCNCC3)c2)cc(C(F)(F)F)n1 | 15 | 8 | 26 | 159 | 8 | 17 | 15 | 2 | 410 (≈ 1120 µM) | – | – | – | – | 52 | 23 | – |
| C[C@H]1CCN1c1nc(-c2cnn(C3CCN(C)CC3)c2)cc(C(F)(F)F)c1C#N | 6 | 7 | 20 | 14 | 86 | 33 | 36 | 11 | 11 (≈ 27.2 µM) | – | – | – | – | 4 | – | – |
| C[C@H]1CCN1c1nc(-c2cnn(C3CNC3)c2)cc(C(F)(F)F)c1C#N | 15 | 15 | 2 | 5 | 13 | 26 | 27 | 15 | 40 (≈ 110 µM) | – | – | – | – | 8 | 31 | – |

More lines, main results first:

| IC50 (Ketohexokinase [1]) [nM] | IC50 (Ketohexokinase [2]) [nM] | IC50 (Ketohexokinase [3]) [nM] | IC50 [4] [nM] | metabolised at 0.5 h [5] [%] | metabolised at 0.5 h [6] [%] | metabolised at 0.5 h [7] [%] | metabolised at 0.5 h [8] [%] | solubility thermodynamic [9] [µg/mL] | Drug transport [10] [%] | hepatocyte CLint [11] [µL/min/1e6 cells] | hepatocyte CLint [12] [µL/min/1e6 cells] | hepatocyte CLint [13] [µL/min/1e6 cells] | IC50 [14] [nM] | SMILES | LC20 (Hepatocyte) [µM] | other results |
| --- | --- | --- | --- | --- | --- | --- | --- | --- | --- | --- | --- | --- | --- | --- | --- | --- |
| 4 | 5 | 3 | 2 | 87 | 86 | 100 | 20 | 11 (≈ 31.2 µM) | 22 | 29 | 49 | 5 | – | C[C@H]1CCN1c1nc(-c2cnn(C3CN(C)C3)c2)cc(C(F)(F)F)n1 | > 50 | – |
| – | – | 102 | 35 | 30 | 9 | 16 | 27 | 28 (≈ 61.9 µM) | 2 | 6.1 | 2.6 | 43 | 16 | C[C@H]1CCN1c1nc(-c2cnn(CC(=O)N(CCO)CCO)c2)cc(C(F)(F)F)c1C#N | > 50 | AUC at 12 h [15]: 1.59 µM·h; Cmax [16]: 2940 nM; clearance [17]: 23 mL/min/kg; half-life [18]: 144 min; Vd [19]: 4.8 L/kg |
| 6 | 9 | 36 | 7 | 93 | 52 | 95 | 60 | 7 (≈ 15.6 µM) | – | – | – | – | 4 | C[C@H]1CCN1c1nc(-c2cnn(CC(=O)N3CCN(C)CC3)c2)cc(C(F)(F)F)c1C#N | 18 | – |
| – | – | 96 | 45 | 66 | 30 | 32 | 45 | 7 (≈ 16.2 µM) | – | – | – | – | 19 | CC(=O)N1CCC(n2cc(-c3cc(C(F)(F)F)c(C#N)c(N4CC[C@@H]4C)n3)cn2)CC1 | – | – |
| 28 | 22 | 82 | 44 | 100 | 83 | 100 | 76 | < 1 | – | – | – | – | 4.5 | C[C@H]1CCN1c1nc(-c2cnn(CCN(C)C)c2)cc(C(F)(F)F)c1C#N | > 50 | – |
| – | – | 109 | 8 | 13 | 0 | 2 | 52 | 19 (≈ 42.2 µM) | 0.5 | 2.2 | 1.9 | 6.1 | 7 | C[C@H]1CCN1c1nc(-c2cnn(CC(=O)N3C[C@@H](O)[C@H](O)C3)c2)cc(C(F)(F)F)c1C#N | > 50 | AUC at 12 h [15]: 0.53 µM·h; Cmax [16]: 1830 nM; clearance [17]: 71 mL/min/kg; half-life [18]: 36 min; Vd [19]: 3.3 L/kg |
| 38 | 33 | 118 | 61 | 98 | 98 | 98 | 49 | 31 (≈ 79.2 µM) | – | – | – | – | 40 | C[C@H]1CCN1c1nc(-c2cnn(C3CCOCC3)c2)cc(C(F)(F)F)c1C#N | > 50 | – |
| – | – | 40 | 32 | 20 | 0 | 0 | 4 | 690 (≈ 1950 µM) | 2.2 | 10 | 2 | < 1.8 | 108 | OC[C@H]1CCN1c1nc(-c2cnn(C3CNC3)c2)cc(C(F)(F)F)n1 | > 50 | AUC at 12 h [15]: 0.531 µM·h; Cmax [16]: 1050 nM; clearance [17]: 90 mL/min/kg; half-life [18]: 42 min; Vd [19]: 3.4 L/kg; AUC [20]: 1.31 µM·h; Cmax [21]: 2730 nM; clearance [22]: 37 mL/min/kg; half-life [23]: 222 min; Vd [24]: 5.2 L/kg |
| – | 7 | 76 | 12 | 20 | 1 | 9 | 24 | 21 (≈ 46.6 µM) | 0.5 | 2.3 | < 1.8 | 3.6 | 5 | C[C@H]1CCN1c1nc(-c2cnn(CC(=O)N3C[C@H](O)[C@@H](O)C3)c2)cc(C(F)(F)F)c1C#N | > 50 | AUC at 12 h [15]: 0.381 µM·h; Cmax [16]: 1280 nM; clearance [17]: 101 mL/min/kg; half-life [18]: 30 min; Vd [19]: 4.6 L/kg; AUC [20]: 2.5 µM·h; Cmax [21]: 2650 nM; clearance [22]: 16 mL/min/kg; half-life [23]: 126 min; Vd [24]: 2.7 L/kg |
| 6 | 4 | 15 | 8 | 32 | 38 | 57 | 26 | 38 (≈ 87.5 µM) | – | – | – | – | – | C[C@H]1CCN1c1nc(-c2cnn(C3CCN(CCO)CC3)c2)cc(C(F)(F)F)c1C#N | 17 | – |
